Read-outs that look alike come from different tables or passages of the source.

This is an account of results in patent US6015823A, “4-Cyclohexylphenyl-oxazolines and their use for controlling animal pests” (Bayer Aktiengesellschaft, priority 1996, dated 2000).

Data set [1] is described as follows: logp: n-octanol/water partition coefficient by reversed phase HPLC. The note with it: h2o/ch3cn, read-out: logp (logarithm to base ten of the n-octanol/water partition coefficient). Format: physicochemical. An excerpt: *) logp: Logarithm to base ten of the n-octanol/water partition coefficient, determined by reversed phase HPLC analysis using H2 O/CH3 CN.
*^) logp: Logarithm to base ten of the noctanol/water partition
coefficient, determined by reversed phase HPLC analysis using H2

Data set [2] deals with green rice leaf hopper (Nephotettix cincticeps). In words: Nephotettix test. It is filed as in vivo. The note with it: active compound concentration 0.1%, after 6 days; for mortality at 0.1 %: Nephotettix cincticeps, 144 h, read-out: destruction in %. The protocol:
(§1) Solvent: 7 parts by weight of dimethylformamide
(§2) Emulsifier: 1 part by weight of alkylaryl polyglycol ether
(§3) To produce a suitable preparation of active compound, 1 part by weight of active compound is mixed with the stated amount of solvent and the stated amount of emulsifier, and the concentrate is diluted with water to the desired concentration.
Rice seedlings (Oryza sativa) are treated by being dipped into the active compound preparation of the desired concentration and are infested with the green rice leaf hopper (Nephotettix cincticeps), while the seedlings are still moist.
After the desired period of time, the destruction in % is determined. 100% means that all the leaf hoppers have been killed; 0% means that none of the leaf hoppers have been killed.

For data set [3], the system named is peach aphids (Myzus persicae). In words: Myzus test. The note with it: active compound concentration 0.1%, after 6 days; for mortality at 0.1 %: Myzus persicae, 144 h, read-out: destruction in %. Format: in vivo. The protocol:
as §1, §2, §3
Seedlings of the broad bean (Vicia faba) which are infested with peach aphids (Myzus persicae) are dipped into the active compound preparation of the desired concentration and placed into a plastic box.
After the desired period of time, the destruction in % is determined. 100% means that all the aphids have been killed; 0% means that none of the aphids have been killed.

The subject of data set [4] is caterpillars of the owlet moth (Spodoptera frugiperda). In words: Spodoptera frugiperda test. The note with it: active compound concentration 0.1%, after 7 days; for mortality at 0.1 %: Spodoptera frugiperda, 168 h, read-out: destruction in %. It is filed as in vivo. The protocol: Spodoptera frugiperda test
as §1, §2
(§4) To produce a suitable preparation of active compound, I part by weight of active compound is mixed with the stated amount of solvent and the stated amount of emulsifier, and the concentrate is diluted with water to the desired concentration.
Cabbage leaves (Brassica oleracea) are treated by being dipped into the active compound preparation of the desired concentration and are infested with caterpillars of the owlet moth (Spodoptera frugiperda), while the leaves are still moist.
After the desired period of time, the destruction in % is determined. 100% means that all the caterpillars have been killed; 0% means that none of the caterpillars have been killed.

Data set [5] concerns mustard beetle larvae (Phaedon cochleariae). In words: Phaedon larvae test. It is filed as in vivo. The note with it: active compound concentration 0.01%, after 7 days; for mortality at 0.01 %: Phaedon cochleariae, 168 h, read-out: destruction in %. The protocol:
as §1, §2, §4
Cabbage leaves (Brassica oleracea) are treated by being dipped into the active compound preparation of the desired concentration and are infested with mustard beetle larvae (Phaedon cochleariae), while the leaves are still moist.
After the desired period of time, the destruction in % is determined. 100% means that all the beetle larvae have been killed; 0% means that none of the beetle larvae have been killed.

Data set [6] deals with common spider mite (Tetranychus urticae). Kind of data set: Tetranychus test (OP resistant/dip treatment). Format: in vivo. The note with it: for mortality at 0.0001 %: Tetranychus urticae, 312 h, read-out: destruction in %. The protocol:
Tetranychus test (OP resistant/dip treatment)
Solvent: 3 parts by weight of dimethylformamide
as §2
To produce a suitable preparation of active compound, 1 part by weight of active compound is mixed with the stated amount of solvent and the stated amount of emulsifier, and the concentrate is diluted with emulsifier-containing water to the desired concentrations.
Bean plants (Phaseolus vulgaris) which are heavily infested by all stages of the common spider mite (Tetranychus urticae) are dipped into the active compound preparation of the desired concentration.
After the desired period of time, the activity in % is determined. 100% means that all the spider mites have been killed; 0% means that none of the spider mites have been killed.

For data set [7], the system named is All larval stages of Lucilia cuprina (OP resistant). In words: Fly larvae test/development-inhibitory action. Format: in vivo. The note with it: active compound concentration 1000 ppm, read-out: activity (larvicidal / development-inhibitory). Here is the method: Fly larvae test/development-inhibitory action
Test animals: All larval stages of Lucilia cuprina (OP resistant) [Pupae and adults (without contact with the active compound)]
Solvent: 35 parts by weight of ethylene glycol monomethyl ether 35 parts by weight of nonylphenol polyglycol ether
To prepare a suitable formulation, 3 parts by weight of active compound are mixed with 7 parts of the abovementioned solvent-emulsifier mixture, and the resulting emulsion concentrate is diluted with water to the concentration desired in each case.
For each concentration, 30 to 50 larvae are transferred to horse meat (1 cm^3) located in glass tubes, and 500 μl of the test dilution are pipetted onto the meat. The glass tubes are placed into plastic beakers whose bottom is covered with sea sand and kept in a controlled-environmentcabinet (26° C.±1.5° C., 70% relative humidity±10%). Larvicidal activity is checked after 24 hours and 48 hours. After the larvae have left (about 72 hours), the glass tubes are removed and perforated plastic lids are placed on the beakers. After 11/2 times the development period (hatching of the control flies), the hatched flies and the pupae/puparia are counted.
The criterion for the activity is the death of the treated larvae after 48 hours (larvicidal effect), or inhibition of adults hatching from the pupae or inhibition of pupation. […]

[8] abbreviates: A isomer (possible geometric isomer).
Setting [9] is: B isomer (possible geometric isomer).

As for `O=C1CCC(c2ccc(C3COC(c4c(F)cccc4F)=N3)cc2)CC1` (centres unmarked) [Example 1, 2-(2,6-difluorophenyl)-4-[4-(4-oxo-cyclohexyl)-phenyl]-1,3-oxazoline], the chromatographic logP in data set [1] was 2.28. Moreover, the mortality at 0.1 % in data set [2] was 90%.
`CCCCCCCCCC1COC2(CCC(c3ccc(C4COC(c5c(F)cccc5F)=N4)cc3)CC2)O1` (centres unmarked) [Example 17]: the values for the mortality at 0.1 % in data set [3] and in data set [4] were 90% and 100%, respectively. For the same compound, the chromatographic logP is 7.12 in data set [1] (setting [8]) and 7.2 in data set [1] (setting [9]). Besides, the mortality at 0.01 % in data set [5] was determined as 100%. Moreover, the mortality at 0.0001 % in data set [6] was 98%.
On to `CC(C)(C)C1COC2(CCC(c3ccc(C4COC(c5c(F)cccc5F)=N4)cc3)CC2)O1` (centres unmarked) [Example 15], for which the mortality at 0.1 % in data set [3] came out at 90%. In addition, the figures for the chromatographic logP in data set [1] (setting [8]) and in data set [1] (setting [9]) were 5.41 and 5.48, respectively. Moreover, the mortality at 0.01 % in data set [5] was determined as 100%. The mortality at 0.0001 % in data set [6] came to 98%.
Regarding `CC1OC2(CCC(c3ccc(C4COC(c5c(F)cccc5F)=N4)cc3)CC2)OC1C` (centres unmarked) [Example 13], the chromatographic logP in data set [1] (setting [8]) amounted to 4.23; in data set [1] (setting [9]), 4.31. Besides, in data set [5], the mortality at 0.01 % came to 100%. In addition, the mortality at 0.1 % in data set [2] turned out to be 80%. Further, the mortality at 0.0001 % in data set [6] was 98%.
Regarding `Fc1cccc(F)c1C1=NC(c2ccc(C3CCC4(CC3)OCC(c3ccc(Cl)cc3)O4)cc2)CO1` (centres unmarked) [Example 5, 2-(2,6-difluorophenyl)-4-[4-(4-p-chlorophenylethylenedioxo-cyclohexyl)-phenyl]-1,3-oxazoline], the inhibition at 1000 ppm in data set [7] turned out to be 100%. In addition, the chromatographic logP in data set [1] was found to be 5.37. In addition, the mortality at 0.1 % in data set [4] was determined as 100%. In addition, the mortality at 0.01 % in data set [5] was 100%. For the same compound, the mortality at 0.0001 % in data set [6] worked out at 98%.
In the case of `CC(C)Oc1ccc(-c2ccc(C3COC(c4c(F)cccc4F)=N3)cc2)cc1` (centres unmarked) [(C)], the “activity (in words)” value in data set [2] is listed as “no activity”.
Still for that read-out and setting: then `CC(C)COc1ccc(-c2ccc(C3COC(c4c(F)cccc4F)=N3)cc2)cc1` (centres unmarked) [(D)], with “no activity”.
With `CCON=C1CCC(c2ccc(C3COC(c4c(F)cccc4F)=N3)cc2)CC1` (centres unmarked) [Example 6], the inhibition at 1000 ppm in data set [7] was determined as 100%. The chromatographic logP in data set [1] amounted to 4. Moreover, the mortality at 0.1 % in data set [4] and in data set [2] was 100% throughout. In addition, the mortality at 0.01 % in data set [5] came to 100%. In data set [6], the mortality at 0.0001 % turned out to be 98%.
Take `Fc1cccc(F)c1C1=NC(c2ccc(C3CCC(=NOCc4ccc(Cl)cc4Cl)CC3)cc2)CO1` (centres unmarked) [Example 21]: in data set [3], the mortality at 0.1 % turned out to be 80%. Moreover, the chromatographic logP in data set [1] was determined as 5.92. In data set [6], the mortality at 0.0001 % worked out at 98%.
On to `CCCCCCCC1COC2(CCC(c3ccc(C4COC(c5c(F)cccc5F)=N4)cc3)CC2)O1` (centres unmarked) [Example 16], for which the mortality at 0.1 % in data set [3] came out at 90%. Further, the values for the chromatographic logP in data set [1] (setting [8]) and in data set [1] (setting [9]) were 6.25 and 6.31, respectively. In addition, in data set [6], the mortality at 0.0001 % is 98%.
Take `CCCCOc1ccc(-c2ccc(C3COC(c4c(F)cccc4F)=N3)cc2)cc1` (centres unmarked) [(E)]: in data set [2], the “activity (in words)” value is on record as “no activity”.
Regarding `CC(C)ON=C1CCC(c2ccc(C3COC(c4c(F)cccc4F)=N3)cc2)CC1` (centres unmarked) [Example 4], the mortality at 0.1 % in data set [3] and in data set [4] was 100% each time. The chromatographic logP in data set [1] came to 4.5. Further, the mortality at 0.01 % in data set [5] was 90%. For the same compound, in data set [6], the mortality at 0.0001 % amounted to 98%.
On to `COc1ccc(-c2ccc(C3COC(c4c(F)cccc4F)=N3)cc2)cc1` (centres unmarked) [(B), reference compound], for which the “activity (in words)” value in data set [4], in data set [5] and in data set [2] was “no activity” throughout.
In the case of `Fc1cccc(F)c1C1=NC(c2ccc(C3CCC4(CC3)OCC(c3cccc(Cl)c3)O4)cc2)CO1` (centres unmarked) [Example 10], the chromatographic logP in data set [1] came to 5.22. In data set [4], the mortality at 0.1 % came to 100%. Moreover, in data set [5], the mortality at 0.01 % was 100%. In data set [6], the mortality at 0.0001 % was 98%.
In the case of `Oc1ccc(-c2ccc(C3COC(c4c(F)cccc4F)=N3)cc2)cc1` (centres unmarked) [(A), reference compound], the “activity (in words)” value in data set [3] and in data set [5] was “no activity” each time. In data set [6] (active compound concentration 0.0001%, after 13 days), the “destruction (in words)” value is “no destruction”.
Regarding `CCC(C)ON=C1CCC(c2ccc(C3COC(c4c(F)cccc4F)=N3)cc2)CC1` (centres unmarked) [Example 9], the chromatographic logP in data set [1] is 4.96. Besides, the mortality at 0.1 % in data set [4] is 100%. Further, the mortality at 0.01 % in data set [5] came out at 100%. Also, in data set [6], the mortality at 0.0001 % amounted to 98%.
For the compound `CCCCOC1(OCCCC)CCC(c2ccc(C3COC(c4c(F)cccc4F)=N3)cc2)CC1` (centres unmarked) [Example 19], the chromatographic logP in data set [1] (setting [8]) is 6.77; in data set [1] (setting [9]), 6.86. Further, the mortality at 0.1 % in data set [4] worked out at 100%. Moreover, the mortality at 0.0001 % in data set [6] stood at 98%.
